Experimental data as given in a compilation of properties of binary mixtures (doi:10.1002/aic.14507).

Assay: xn = mol fraction of the nth substance listed
Conditions: 100 kPa

Molecule CCCCCCCCn1cc[n+](C)c1.F[B-](F)(F)F + O has a viscosity (303 K, x1 = 0.5482) of 42.67 mPa·s, a viscosity (313 K, x1 = 0.5482) of 28.9 mPa·s and a viscosity (318 K, x1 = 0.5482) of 24.3 mPa·s. For the same molecule, the viscosity (323 K, x1 = 0.5482) was 20.63 mPa·s.

In the case of CCCC[n+]1ccn(C)c1.O=[N+]([O-])[O-] + O, the viscosity (303 K, x1 = 0.4462) is reported as 17.21 mPa·s, the viscosity (303 K, x1 = 0.6298) is reported as 35.74 mPa·s and the viscosity (313 K, x1 = 0.0098) is reported as 0.819 mPa·s. The viscosity (313 K, x1 = 0.0219) was 0.971 mPa·s, the viscosity (313 K, x1 = 0.037) was 1.24 mPa·s and the viscosity (313 K, x1 = 0.1184) was 2.753 mPa·s. For the same molecule, the viscosity (313 K, x1 = 0.1728) was 3.908 mPa·s, the viscosity (313 K, x1 = 0.4462) was 12.64 mPa·s and the viscosity (313 K, x1 = 0.6298) was 24.64 mPa·s. For the same molecule, the viscosity (318 K, x1 = 0.4462) was 11 mPa·s, the viscosity (318 K, x1 = 0.6298) was 20.86 mPa·s and the viscosity (323 K, x1 = 0.4462) was 9.66 mPa·s. It also gave a viscosity (323 K, x1 = 0.6298) of 17.88 mPa·s.
